Laboratory results published in patent US20260285847A1, “SYMMETRIC AMINOINDOLE-LINKED TRIAZINE FOR A DUAL EFFECT ON ALPHA-SYNUCLEIN AND TAU ISOFORM 2N4R FIBRILLIZATION” (Purdue Research Foundation, priority 2023, published 2026).
Entries after “also recorded” stand apart in the source; their conditions may differ.

Tests used:
[1] = tested on: M17D-TR/αS3K::YFP neuroblastoma cells; assay: α-syn inclusion formation in dox-inducible neuroblastoma cells; type: cell-based
Description: The dox-inducible neuroblastoma cell line M17D-TR/αS3K::YFP was used to evaluate the effect of compounds in preventing the formation of inclusion following induction with Dox. Dox-inducible neuroblastoma cells M17D-TR/αS-3K::YFP have been used previously. 96-well plates were used with cellular density of 30,000 cells per well. Compounds were added after 24 h and aS-3K::YFP transgene expression was induced […]. Induction was done by adding 1 μg per mL (final concentration) dox to culture media. Cells were incubated in the Incucyte Zoom 2000 platform (Essen Biosciences) and images (green, bright field) were taken continuously. Endpoint analysis of inclusion formation or growth was performed 48 h after induction (96 h after plating). The Incucyte processing definition ‘Inclusions’ was created as follows: Parameters, Fixed Threshold, Threshold (GCU) 50; Edge Split On, Edge Sensitivity 100; Cleanup, Hole Fill (μm^2): 10, Adjust Size (pixels): 0; Filters, Area (μm^2): max 50, Mean Intensity: min 60, Integrated Intensity: min 2000. […] As described previously for the evaluation of protein expression by SDS-PAGE and Western Blotting in the LiCor system, αS-specific monoclonal antibody 4B12 (Thermofisher, Waltham, MA; 1:1000) and a polyclonal antibody to GAPDH (Sigma-Aldrich, St. Louis, MO, G9545; 1:5000) were used.

alpha-synuclein (α-syn) = target: T1, alpha-synuclein (α-syn) (Homo sapiens, UniProt P37840); assay: Thioflavin T (ThT) fluorescence assay of α-syn fibril formation; type: biochemical; details: compound 100 μM
T1 construct: purchased rPeptide
Description: Thioflavin fluorescence assays. Thioflavin fluorescence assays were used to monitor fibril formation of recombinant α-syn, tau isoform 2N4R, treated with control DMSO and different compounds. Kinetics of α-syn fibrillization were performed using thioflavin T (ThT) as published previously.^32′ ^37 The fluorescence emission experiments were performed with the excitation and emission wavelengths set at 440 and 485 nm, respectively, with a Synergy HT multi-mode microplate reader (BioTek, Winooski, VT). Samples were measured in three replicates and the experiments were repeated three times using at least two different stock solutions. For each time point, arbitrary units of fluorescence were calculated from the mean values normalized against the maximum value in each completed assay. All results contained in FIG. 1 were presented as mean±SEM.
FIG. 1. Chemical structure, physicochemical descriptors, and the effect of compounds on alpha-synuclein (α-syn) aggregation measured as fluorescence intensity using ThT assay. TPSA, Log P, and Log D were obtained with SwissADME. BBB and pKa were obtained from the Blood-Brain Barrier Prediction Server (https://www.cbligand.org/BBB/) and Chemaxon, respectively. CNS MPO scores were assessed as published previously, The ThT (%) represent the maximum fluorescence intensity obtained at the plateau phase of the kinetics of fibrillization using 6.25 μM of α-syn. Compounds were tested at 100 μM (molar ratio 1:16). BBB, blood-brain barrier; C log D, calculated distribution coefficient at 7.4; C log P, calculated partition coefficient; CNS MPO, Central Nervous System Multi Parameter Optimization; HBA, Hydrogen Bond Acceptor; HBD, Hydrogen Bond Donor; LR5, Lipinski's rule of five; pKa, negative log of acid dissociation constant; ThT, Thioflavin T; TPSA, Topological polar surface area.

tau isoform 2N4R [2] = target: T2, tau isoform 2N4R (Homo sapiens, UniProt P10636); assay: PICUP cross-linking assay of tau oligomer formation; type: biochemical; details: compound 50 μM; high molecular weight oligomers around 190 kDa
T2 construct: made in house; host or cells: E. coli BL21(DE3)
T2 sequence (P10636 1-441 isoform P10636-8): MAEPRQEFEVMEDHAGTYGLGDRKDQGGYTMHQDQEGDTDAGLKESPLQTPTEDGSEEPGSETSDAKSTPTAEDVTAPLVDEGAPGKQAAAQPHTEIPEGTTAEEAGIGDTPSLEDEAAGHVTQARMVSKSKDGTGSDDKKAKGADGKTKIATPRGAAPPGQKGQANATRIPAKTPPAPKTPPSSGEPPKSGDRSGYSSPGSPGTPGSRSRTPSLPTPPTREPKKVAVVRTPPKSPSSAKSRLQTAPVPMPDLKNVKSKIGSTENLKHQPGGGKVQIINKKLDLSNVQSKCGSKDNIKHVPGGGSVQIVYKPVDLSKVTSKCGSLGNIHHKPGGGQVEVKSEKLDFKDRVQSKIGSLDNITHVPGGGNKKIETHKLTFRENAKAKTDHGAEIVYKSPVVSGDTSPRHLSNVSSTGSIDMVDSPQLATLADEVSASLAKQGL
Description: (§1) Chemical and peptide source. DMSO and thioflavin-T (ThT) were purchased from Alfa Aesar (Ward Hill, MA). Procuration of recombinant α-syn was from rPeptide (WatKinsville, GA). The recombinant p-tau isoform 1N4R was prepared as published previously.^31, 36 Concerning the preparation of tau 2N4R, bacterial expression plasmid consisting of the vector pRK172 carrying a cDNA encoding the human Tau 2N4R isoform was a kind gift of Dr. David Eliezer (Weill Cornell Medicine). For protein expression, E. coli BL21(DE3) cells were transformed with the plasmid and grown in LB media supplemented with ampicillin (100 μg/mL). Protein over-expression was induced by the addition of 1 mM IPTG for 4 h at 37° C., and cells were pelleted by centrifugation at 6,000 g for 15 min at 4° C. The cells were resuspended in lysis buffer (20 mM MES, 400 mM NaCl, 0.2 mM MgCl2, 1 mM EGTA, protease inhibitor cocktail (P8340, Sigma Aldrich), 0.25 mg/mL lysozyme, and 1 μg/mL DNase I, pH 6.8) and lysed by a French press cell disruptor at 4° C., and the lysate was boiled for 20 min. Denatured proteins were pelleted by centrifugation at 30,000 g for 30 min at 4° C., and the supernatant was dialyzed overnight against cation exchange buffer (20 mM MES, 50 mM NaCl, 1 mM MgCl2, 1 mM EGTA, 2 mM DTT, 0.1 mM PMSF, pH 6.8). The dialysate was loaded onto a HiPrep SP HP column, and proteins were eluted with a linear gradient ranging from 50 mM to 1 M NaCl. Fractions containing tau isoform 2N4R were pooled, and the resulting protein solution was dialyzed against PBS (pH 7.4) and stored at −80° C.
PICUP is a technique in which oligomer formation is induced by cross-linking. To induce oligomerization by cross-linking, α-syn (from Rpeptide, LLC) and tau isoform 2N4R were diluted in 10 mM phosphate buffer (pH 7.4) to reach a final concentration of 10 μM. Different compounds were added to the protein solution at a final concentration of 50 μM, resulting in a molar ratio of 1:5. […]

α-syn [3] = target: T3, α-syn (Homo sapiens, UniProt P37840); assay: PICUP cross-linking assay of α-syn oligomer formation; type: biochemical; details: compound 50 μM; high molecular weight oligomers around 50 kDa
T3 construct: purchased rPeptide
Description: PICUP is a technique in which oligomer formation is induced by cross-linking. To induce oligomerization by cross-linking, α-syn (from Rpeptide, LLC) and tau isoform 2N4R were diluted in 10 mM phosphate buffer (pH 7.4) to reach a final concentration of 10 μM. Different compounds were added to the protein solution at a final concentration of 50 μM, resulting in a molar ratio of 1:5. To confirm the gradual effect of compounds on the inhibition of α-syn oligomerization, compounds were tested at final concentration of 3.125, 6.25, 12.5, 25, and 50 μM. The controls consisted of samples without light exposition, without Ru(bpy) or ammonium persulfate, and without compound (i.e., 0.125% DMSO). The cross-linking reaction was initiated by the addition of 2 μL of Ru(bpy) (300 μM final concentration) and 2 μL ammonium persulfate (6 mM final concentration).^32 Samples were irradiated immediately. Light exposure was of a 1 second duration for α-syn and a 3 second duration for tau isoform 2N4R, with a 53 W (120 V) incandescent lamp installed in a homemade dark-box. Each tube contained a final volume of 20 μL. After irradiation, 8.3 μL of Laemmli loading buffer containing 15% 0-mercaptoethanol was immediately added to the solution, followed by incubation at 95° C. for 10 min. The cross-linked samples were separated on a 16% SDS-PAGE gel and visualized by Coomassie blue staining.

tau isoform 2N4R [4] = target: T2, tau isoform 2N4R; assay: ThT fluorescence assay of tau isoform 2N4R fibril formation; type: biochemical; details: compound 100 μM, tau 2N4R 6 μM, heparin 1.5 μM
Description: as §1

tau isoform 2N4R [5] = target: T2, tau isoform 2N4R; assay: TEM of tau isoform 2N4R fibrils; type: biochemical; details: protein 60 μM, compound 600 μM (1:10), 24 hours at 37° C.
Description: as §1
To confirm the general anti-fibrillar effect of compound 10, transmission electron microscopy (TEM) was used as an orthogonal assay. After incubating recombinant proteins (at 60 μM) with 600 μM compound 10 for 24 hours at 37° C., TEM was utilized to detect fibril formation.^32 A volume of 10 μL was applied on a 400-mesh Formvar-carbon-coated copper grid (Electron Microscopy Sciences, Hatfield, PA). The grids were incubated for 1 minute and washed three times with distilled water. […]

α-syn [6] = target: T3, α-syn; assay: Transmission electron microscopy (TEM) of α-syn fibrils; type: biochemical; details: protein 60 μM, compound 600 μM (1:10), 24 hours at 37° C.
Description: To confirm the general anti-fibrillar effect of compound 10, transmission electron microscopy (TEM) was used as an orthogonal assay. After incubating recombinant proteins (at 60 μM) with 600 μM compound 10 for 24 hours at 37° C., TEM was utilized to detect fibril formation.^32 A volume of 10 μL was applied on a 400-mesh Formvar-carbon-coated copper grid (Electron Microscopy Sciences, Hatfield, PA). The grids were incubated for 1 minute and washed three times with distilled water. They were carefully air-dried and incubated for 1 minute in a fresh solution of 1% uranyl acetate. Samples were air-dried and observed using a transmission microscope. Visualization of the grids was performed with transmission electron microscopy (JEOL 1400 Flash, Japan). Acquisition of pictures was performed with the following settings: accelerating voltage of 100 kV and magnification of 40k.

| SMILES | α-syn expression levels (Western blot) ([1]; compound 10 μM) | α-syn expression levels (Western blot) ([1]; compound 2.5 and 20 μM) | α-syn inclusion formation (punctate YFP signal, in words) ([1]; compound 7: 2.5 to 20 μM, compound 10: 2.5 to 40 μM, readout 96 h after plating, vs 0.1% DMSO) | inhibition of α-syn aggregation / fibril formation (in words) (alpha-synuclein (α-syn); ThT assay) | tau oligomer formation (PICUP, in words) (tau isoform 2N4R [2]) | α-syn oligomer formation (PICUP, in words) (α-syn [3]) | tau isoform 2N4R fibrillization (in words) (tau isoform 2N4R [4]) | tau isoform 2N4R fibril ultrastructure (TEM) (tau isoform 2N4R [5]) | α-syn fibril ultrastructure (TEM) (α-syn [6]) | ThT fluorescence intensity (FI), maximum at the plateau phase of α-syn fibrillization (alpha-synuclein (α-syn); α-syn 6.25 μM (molar ratio 1:16), compared with DMSO control, mean±SEM, 100 µM) [%] | activity at 100 µM (alpha-synuclein (α-syn); α-syn 6.25 μM (molar ratio 1:16), compared with DMSO control, mean±SEM, read-out: ThT fluorescence intensity (FI), maximum at the plateau phase of α-syn fibrillization) [%] |
| --- | --- | --- | --- | --- | --- | --- | --- | --- | --- | --- | --- |
| c1cc(Oc2ncnc(Oc3cccc4[nH]ccc34)n2)c2cc[nH]c2c1 [Compound 7, 4-{[4-(1H-indol-4-yloxy)-1,3,5-triazin-2-yl]oxy}-1H-indole] | reduced | reduced | very minimal changes in the numbers of inclusion | nonexistent anti-fibrillar activity; also recorded: weak effect on fibril formation | did not reduce the formation of α-syn and tau oligomers | did not reduce the formation of α-syn and tau oligomers | failed to reduce tau fibril formation | fibrils surrounded by debris admixed with disrupted fibrils | packets of fine fibrils with a few spherical structures encountered on the grid |  |  |
| Clc1nc(Nc2ccc3cc[nH]c3c2)nc(Nc2ccc3cc[nH]c3c2)n1 [Compound 24] |  |  |  |  |  |  |  |  |  | −0.3±0.5 |  |
| c1cc(Nc2nc(Nc3cccc4[nH]ccc34)nc(Nc3cccc4[nH]ccc34)n2)c2cc[nH]c2c1 [Compound 25] |  |  |  |  |  |  |  | medium size needle-shaped fibrils | rare short fibrils |  | 21.5 ± 7.9 |
